| Structure (SMILES) | melting point |
| --- | --- |
| CC1(C)CCC(C)(C)c2cc(NC(=O)c3ccc(C=O)cc3)ccc21 [Example 23, 4-Formyl-N-(5,6,7,8-tetrahydro-5,5,8,8-tetramethyl-2-naphthyl)benzamide] | 185.5 to 186.5 °C |
| C[C@H](OC(=O)c1ccc(C(=O)Nc2cc([Si](C)(C)C)cc([Si](C)(C)C)c2)cc1)C(=O)O | 198 to 200 °C |
| CC1(C)CCC(C)(C)c2cc(NC(=O)c3ccc(/C=C/C(=O)O)cc3)ccc21 [Example 24, 4-[(5,6,7,8-Tetrahydro-5,5,8,8-tetramethyl-2-naphthyl)carbamoyl]cinnamic acid] | 226 to 227 °C |

Reference: patent publication US8633335B2, “Retinoid prodrug compound” (Research Founation Itsuu Laboratory, priority 2007, dated 2014)
